Source: ChEMBL document CHEMBL3792365, “Dioxol and dihydrodioxin analogs of 2- and 3-phenylacetonitriles as potent anti-cancer agents with nanomolar activity against a variety of human cancer cells” (2016)

Legend:
Format in all cases: functional
[1] = Growth inhibition of human SNB75 cells at 10 uM after 48 hrs by sulforhodamine B assay; settings: SNB-75, 48 h, values are per cent of control
U-251 = experiment: Growth inhibition of human U251 cells at 10 uM after 48 hrs by sulforhodamine B assay; settings: U-251, 48 h, values are per cent of control
[2] = Growth inhibition of human LOXIMVI cells at 10 uM after 48 hrs by sulforhodamine B assay; settings: LOX IMVI, values are per cent of control
M14 = experiment: Growth inhibition of human M14 cells at 10 uM after 48 hrs by sulforhodamine B assay; settings: M14, 48 h, values are per cent of control
MDA-MB-435 = experiment: Growth inhibition of human MDA-MB-435 cells at 10 uM after 48 hrs by sulforhodamine B assay; settings: MDA-MB-435, 48 h, values are per cent of control
SK-MEL-28 = experiment: Growth inhibition of human SK-MEL-28 cells at 10 uM after 48 hrs by sulforhodamine B assay; settings: SK-MEL-28, 48 h, values are per cent of control
SK-MEL-5 = experiment: Growth inhibition of human SK-MEL-5 cells at 10 uM after 48 hrs by sulforhodamine B assay; settings: SK-MEL-5, 48 h, values are per cent of control
[3] = Growth inhibition of human UACC62 cells at 10 uM after 48 hrs by sulforhodamine B assay; settings: UACC-62, 48 h, values are per cent of control
[4] = Growth inhibition of human IGROV1 cells at 10 uM after 48 hrs by sulforhodamine B assay; settings: IGROV-1, 48 h, values are per cent of control
[5] = Growth inhibition of human OVCAR4 cells at 10 uM after 48 hrs by sulforhodamine B assay; settings: OVCAR-4, 48 h, values are per cent of control
[6] = Growth inhibition of human OVCAR5 cells at 10 uM after 48 hrs by sulforhodamine B assay; settings: OVCAR-5, 48 h, values are per cent of control
[7] = Growth inhibition of human OVCAR8 cells at 10 uM after 48 hrs by sulforhodamine B assay; settings: OVCAR-8, 48 h, values are per cent of control
[8] = Growth inhibition of human NCI-ADR-RES cells at 10 uM after 48 hrs by sulforhodamine B assay; settings: values are per cent of control
A498 = experiment: Growth inhibition of human A498 cells at 10 uM after 48 hrs by sulforhodamine B assay; settings: A498, 48 h, values are per cent of control
ACHN = experiment: Growth inhibition of human ACHN cells at 10 uM after 48 hrs by sulforhodamine B assay; settings: values are per cent of control
[9] = Growth inhibition of human Caki1 cells at 10 uM after 48 hrs by sulforhodamine B assay; settings: CAKI-1, 48 h, values are per cent of control
[10] = Growth inhibition of human RXF393 cells at 10 uM after 48 hrs by sulforhodamine B assay; settings: RXF 393, 48 h, values are per cent of control
SN12C = experiment: Growth inhibition of human SN12C cells at 10 uM after 48 hrs by sulforhodamine B assay; settings: values are per cent of control
[11] = Growth inhibition of human UO31 cells at 10 uM after 48 hrs by sulforhodamine B assay; settings: UO-31, 48 h, values are per cent of control
[12] = Growth inhibition of human DU145 cells at 10 uM after 48 hrs by sulforhodamine B assay; settings: DU-145, 48 h, values are per cent of control
MDA-MB-231 = experiment: Growth inhibition of human MDA-MB-231 cells at 10 uM after 48 hrs by sulforhodamine B assay; settings: MDA-MB-231, 48 h, values are per cent of control
[13] = Growth inhibition of human Hs 578T cells at 10 uM after 48 hrs by sulforhodamine B assay; settings: values are per cent of control
[14] = Growth inhibition of human BT549 cells at 10 uM after 48 hrs by sulforhodamine B assay; settings: BT-549, 48 h, values are per cent of control
T47D = experiment: Growth inhibition of human T47D cells at 10 uM after 48 hrs by sulforhodamine B assay; settings: values are per cent of control
MDA-MB-468 = experiment: Growth inhibition of human MDA-MB-468 cells at 10 uM after 48 hrs by sulforhodamine B assay; settings: MDA-MB-468, 48 h, values are per cent of control
K562 = experiment: Growth inhibition of human K562 cells at 10 uM after 48 hrs by sulforhodamine B assay; settings: K562, 48 h, values are per cent of control
A549 = experiment: Growth inhibition of human A549/ATCC cells at 10 uM after 48 hrs by sulforhodamine B assay; settings: A549, 48 h, values are per cent of control
[15] = Growth inhibition of human HOP62 cells at 10 uM after 48 hrs by sulforhodamine B assay; settings: HOP-62, 48 h, values are per cent of control
NCI-H322M = experiment: Growth inhibition of human NCI-H322M cells at 10 uM after 48 hrs by sulforhodamine B assay; settings: values are per cent of control
NCI-H460 = experiment: Growth inhibition of human NCI-H460 cells at 10 uM after 48 hrs by sulforhodamine B assay; settings: NCI-H460, 48 h, values are per cent of control
NCI-H522 = experiment: Growth inhibition of human NCI-H522 cells at 10 uM after 48 hrs by sulforhodamine B assay; settings: NCI-H522, 48 h, values are per cent of control
[16] = Growth inhibition of human COLO205 cells at 10 uM after 48 hrs by sulforhodamine B assay; settings: COLO 205, 48 h, values are per cent of control
[17] = Growth inhibition of human HCC2998 cells at 10 uM after 48 hrs by sulforhodamine B assay; settings: HCC 2998, 48 h, values are per cent of control
[18] = Growth inhibition of human HCT116 cells at 10 uM after 48 hrs by sulforhodamine B assay; settings: HCT-116, 48 h, values are per cent of control
[19] = Growth inhibition of human HCT15 cells at 10 uM after 48 hrs by sulforhodamine B assay; settings: HCT-15, 48 h, values are per cent of control
KM12 = experiment: Growth inhibition of human KM12 cells at 10 uM after 48 hrs by sulforhodamine B assay; settings: KM12, 48 h, values are per cent of control
[20] = Growth inhibition of human SW620 cells at 10 uM after 48 hrs by sulforhodamine B assay; settings: SW-620, 48 h, values are per cent of control
[21] = Growth inhibition of human SF268 cells at 10 uM after 48 hrs by sulforhodamine B assay; settings: SF-268, 48 h, values are per cent of control
[22] = Growth inhibition of human SF539 cells at 10 uM after 48 hrs by sulforhodamine B assay; settings: SF-539, 48 h, values are per cent of control
[23] = Growth inhibition of human SNB19 cells at 10 uM after 48 hrs by sulforhodamine B assay; settings: SNB-19, 48 h, values are per cent of control

Row | Structure (SMILES) | growth, % of control at 10 µM [1] [%] | growth, % of control at 10 µM (U-251) [%] | growth, % of control at 10 µM [2] [%] | growth, % of control at 10 µM (M14) [%] | growth, % of control at 10 µM (MDA-MB-435) [%] | growth, % of control at 10 µM (SK-MEL-28) [%] | growth, % of control at 10 µM (SK-MEL-5) [%] | growth, % of control at 10 µM [3] [%] | growth, % of control at 10 µM [4] [%] | growth, % of control at 10 µM [5] [%] | growth, % of control at 10 µM [6] [%] | growth, % of control at 10 µM [7] [%] | growth, % of control at 10 µM [8] [%] | growth, % of control at 10 µM (A498) [%] | growth, % of control at 10 µM (ACHN) [%] | growth, % of control at 10 µM [9] [%] | growth, % of control at 10 µM [10] [%] | growth, % of control at 10 µM (SN12C) [%] | growth, % of control at 10 µM [11] [%] | growth, % of control at 10 µM [12] [%] | also measured
1 | N#C/C(=C\c1cccnc1Cl)c1ccc2c(c1)OCO2 | 102 | 95.8 | 103 | 94.9 | 97.1 | 113 | 92.2 | 85.7 | 113 | 100 | 106 | 56.2 | 101 | 90.7 | 109 | 103 | 98.3 | 91.7 | 87.6 | 115 | growth, % of control at 10 µM (MDA-MB-231): 99.8%; growth, % of control at 10 µM [13]: 129%; growth, % of control at 10 µM [14]: 88.5%; growth, % of control at 10 µM (T47D): 93.4%; growth, % of control at 10 µM (MDA-MB-468): 93.7%; growth, % of control at 10 µM (K562): 113%; growth, % of control at 10 µM (A549): 103%; growth, % of control at 10 µM [15]: 103%; growth, % of control at 10 µM (NCI-H322M): 97%; growth, % of control at 10 µM (NCI-H460): 102%; growth, % of control at 10 µM (NCI-H522): 71.7%; growth, % of control at 10 µM [16]: 112%; growth, % of control at 10 µM [17]: 107%; growth, % of control at 10 µM [18]: 94%; growth, % of control at 10 µM [19]: 98.8%; growth, % of control at 10 µM (KM12): 109%; growth, % of control at 10 µM [20]: 94.8%; growth, % of control at 10 µM [21]: 109%; growth, % of control at 10 µM [22]: 99.8%; growth, % of control at 10 µM [23]: 101%
2 | N#C/C(=C\c1ccc(Cl)c(Cl)c1)c1ccc2c(c1)OCO2 | 20.3 | 86.3 | 62.7 | 96.5 | 93.7 | 105 | 98.4 | 108 | 67.2 | 26.1 | 99.3 | 70.9 | 79.3 | 94.3 | 49.1 | 87.4 | 94.4 | 93.5 | 73.7 | 94.1 | growth, % of control at 10 µM (MDA-MB-231): 80.5%; growth, % of control at 10 µM [13]: 81.3%; growth, % of control at 10 µM [14]: 94.1%; growth, % of control at 10 µM (T47D): 74.7%; growth, % of control at 10 µM (MDA-MB-468): 101%; growth, % of control at 10 µM (K562): 94.8%; growth, % of control at 10 µM (A549): 70%; growth, % of control at 10 µM [15]: 88%; growth, % of control at 10 µM (NCI-H322M): 74.1%; growth, % of control at 10 µM (NCI-H460): 84.7%; growth, % of control at 10 µM (NCI-H522): 82.7%; growth, % of control at 10 µM [16]: 93.2%; growth, % of control at 10 µM [17]: 92.1%; growth, % of control at 10 µM [18]: 70.1%; growth, % of control at 10 µM [19]: 88.7%; growth, % of control at 10 µM (KM12): 91.7%; growth, % of control at 10 µM [20]: 89.8%; growth, % of control at 10 µM [21]: 80.9%; growth, % of control at 10 µM [22]: 86.9%; growth, % of control at 10 µM [23]: 105%
3 | N#C/C(=C\c1ccsc1)c1ccc2c(c1)OCO2 | 67.7 | 93.7 | 112 | 105 | 107 | 113 | 102 | 106 | 96.4 | 91 | 115 | 90.8 | 113 | 103 | 112 | 97.3 | 101 | 104 | 84.6 | 98.5 | growth, % of control at 10 µM (MDA-MB-231): 103%; growth, % of control at 10 µM [13]: 119%; growth, % of control at 10 µM [14]: 96.5%; growth, % of control at 10 µM (T47D): 90.7%; growth, % of control at 10 µM (MDA-MB-468): 105%; growth, % of control at 10 µM (K562): 105%; growth, % of control at 10 µM (A549): 92.1%; growth, % of control at 10 µM [15]: 94.5%; growth, % of control at 10 µM (NCI-H322M): 90.6%; growth, % of control at 10 µM (NCI-H460): 104%; growth, % of control at 10 µM (NCI-H522): 95.4%; growth, % of control at 10 µM [16]: 101%; growth, % of control at 10 µM [17]: 106%; growth, % of control at 10 µM [18]: 102%; growth, % of control at 10 µM [19]: 107%; growth, % of control at 10 µM (KM12): 94.6%; growth, % of control at 10 µM [20]: 109%; growth, % of control at 10 µM [21]: 102%; growth, % of control at 10 µM [22]: 105%; growth, % of control at 10 µM [23]: 101%
